Source: US11780839B2, “Compounds for treating Huntington's disease” (PTC THERAPEUTICS, INC., priority 2018, dated 2023)

System: Endogenous Huntingtin Protein
Assay: Endogenous Huntingtin Protein Assay (ELISA-based Meso Scale Discovery electrochemiluminescence)
Format: cell-based
Settings: MSD electrochemiluminescence, Table 1
Method in brief: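 Sandwich MSD electrochemiluminescence immunoassay. Capture used MW1 (expanded polyglutamine) or MAB2166 antibody coated at 1 μg/mL overnight at 4 °C. Samples were bound overnight at 4 °C, then a rabbit monoclonal detection antibody and SULFO-TAG anti-rabbit, each at 0.25 μg/mL, were applied for 1 h at room temperature.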

Row | Structure (SMILES) | IC50
1 | CN(c1ncc(-c2ccc(-c3ccc4[nH]ncc4n3)cc2O)nn1)C1CC(C)(C)NC(C)(C)C1 [Cpd 136, 2-{3-[methyl(2,2,6,6-tetramethylpiperidin-4-yl)amino]-1,2,4-triazin-6-yl}-5-(1H-pyrazolo[4,3-b]pyridin-5-yl)phenol] | ≤ 100 nM
2 | Oc1cc(-c2cn[nH]c2)ccc1-c1cnc(N2CCC(NC3CC3)C2)nn1 (stereo not drawn) [Cpd 137, 2-{3-[3-(cyclopropylamino)pyrrolidin-1-yl]-1,2,4-triazin-6-yl}-5-(1H-pyrazol-4-yl)phenol] | ≤ 100 nM
3 | CC(C)(C)NC1CCN(c2ncc(-c3ccc(-c4cn[nH]c4)cc3O)nn2)C1 (stereo not drawn) [Cpd 138, 2-{3-[3-(tert-butylamino)pyrrolidin-1-yl]-1,2,4-triazin-6-yl}-5-(1H-pyrazol-4-yl)phenol] | ≤ 100 nM
4 | CN(c1ncc(-c2ccc(-n3cnc(C#N)c3)cc2O)nn1)C1CC(C)(C)NC(C)(C)C1 [Cpd 139, 1-(3-hydroxy-4-{3-[methyl(2,2,6,6-tetramethylpiperidin-4-yl)amino]-1,2,4-triazin-6-yl}phenyl)-1H-imidazole-4-carbonitrile] | 100 to 500 nM
5 | CC(=O)c1cn(-c2ccc(-c3cnc(N(C)C4CC(C)(C)NC(C)(C)C4)nn3)c(O)c2)cn1 [Cpd 140, 1-[1-(3-hydroxy-4-{3-[methyl(2,2,6,6-tetramethylpiperidin-4-yl)amino]-1,2,4-triazin-6-yl}phenyl)-1H-imidazol-4-yl]ethan-l-one] | ≤ 100 nM
6 | Cc1cn2nc(-c3ccc(-c4cnc(N(C)C5CC(C)(C)NC(C)(C)C5)nn4)c(O)c3)cc(C)c2n1 [Cpd 141, 5-(2,8-dimethylimidazo[1,2-b]pyridazin-6-yl)-2-{3-[methyl(2,2,6,6-tetramethylpiperidin-4-yl)amino]-1,2,4-triazin-6-yl}phenol] | ≤ 100 nM
7 | Cc1cn2nc(-c3ccc(-c4cnc(N(C)C5CC(C)(C)NC(C)(C)C5)nn4)c(O)c3)ccc2n1 [Cpd 142, 5-(2-methylimidazo[1,2-b]pyridazin-6-yl)-2-{3-[methyl(2,2,6,6-tetramethylpiperidin-4-yl)amino]-1,2,4-triazin-6-yl}phenol] | ≤ 100 nM
8 | CN(c1ncc(-c2ccc(-c3nnn(C)n3)cc2O)nn1)C1CC(C)(C)NC(C)(C)C1 [Cpd 143, 2-{3-[methyl(2,2,6,6-tetramethylpiperidin-4-yl)amino]-1,2,4-triazin-6-yl}-5-(2-methyl-2H-tetrazol-5-yl)phenol] | ≤ 100 nM
9 | COc1cnc(-c2ccc(-c3cnc(N(C)C4CC(C)(C)NC(C)(C)C4)nn3)c(O)c2)nn1 [Cpd 144, 5-(6-methoxy-1,2,4-triazin-3-yl)-2-{3-[methyl(2,2,6,6-tetramethylpiperidin-4-yl)amino]-1,2,4-triazin-6-yl}phenol] | ≤ 100 nM
10 | CN(c1ncc(-c2ccc(-c3ccc4ncoc4c3)cc2O)nn1)C1CC(C)(C)NC(C)(C)C1 [Cpd 145, 5-(1,3-benzoxazol-6-yl)-2-{3-[methyl(2,2,6,6-tetramethylpiperidin-4-yl)amino]-1,2,4-triazin-6-yl}phenol] | ≤ 100 nM
11 | CN(c1ncc(-c2ccc(-c3cc(=O)n(C)cn3)cc2O)nn1)C1CC(C)(C)NC(C)(C)C1 [Cpd 146, 6-(3-hydroxy-4-{3-[methyl(2,2,6,6-tetramethylpiperidin-4-yl)amino]-1,2,4-triazin-6-yl}phenyl)-3-methylpyrimidin-4(3H)-one] | ≤ 100 nM
12 | CN(c1ncc(-c2ccc(-c3cnn(C)c(=O)c3)cc2O)nn1)C1CC(C)(C)NC(C)(C)C1 [Cpd 147, 5-(3-hydroxy-4-{3-[methyl(2,2,6,6-tetramethylpiperidin-4-yl)amino]-1,2,4-triazin-6-yl}phenyl)-2-methylpyridazin-3(2H)-one] | ≤ 100 nM
13 | CC(C)NC1CCN(c2ncc(-c3ccc(-c4cn[nH]c4)cc3O)nn2)C1 (stereo not drawn) [Cpd 148, 2-(3-{3-[(propan-2-yl)amino]pyrrolidin-1-yl}-1,2,4-triazin-6-yl)-5-(1H-pyrazol-4-yl)phenol] | ≤ 100 nM
14 | CN1CCC2(CC1)CN(c1ncc(-c3ccc(-c4c[nH]nc4F)cc3O)nn1)C2 [Cpd 149, 5-(3-fluoro-1H-pyrazol-4-yl)-2-[3-(7-methyl-2,7-diazaspiro[3.5]nonan-2-yl)-1,2,4-triazin-6-yl]phenol] | ≤ 100 nM
15 | Oc1cc(-c2c[nH]nc2F)ccc1-c1cnc(N2CC[C@H]3NCC[C@H]3C2)nn1 [Cpd 150, 5-(3-fluoro-1H-pyrazol-4-yl)-2-{3-[(3aS,7aR)-octahydro-5H-pyrrolo[3,2-c]pyridin-5-yl]-1,2,4-triazin-6-yl}phenol] | ≤ 100 nM
16 | Oc1cc(-c2c[nH]nc2F)ccc1-c1cnc(N2CC3(CCNCC3)C2)nn1 [Cpd 151, 2-[3-(2,7-diazaspiro[3.5]nonan-2-yl)-1,2,4-triazin-6-yl]-5-(3-fluoro-1H-pyrazol-4-yl)phenol] | ≤ 100 nM
17 | CN(c1ncc(-c2ccc(-c3ccn4nncc4c3)cc2O)nn1)C1CC(C)(C)NC(C)(C)C1 [Cpd 152, 2-{3-[methyl(2,2,6,6-tetramethylpiperidin-4-yl)amino]-1,2,4-triazin-6-yl}-5-([1,2,3]triazolo[1,5-a]pyridin-5-yl)phenol] | ≤ 100 nM

Row | Structure (SMILES) | IC50
18 | CN1CC[C@H]2CN(c3ncc(-c4ccc(-c5c[nH]nc5F)cc4O)nn3)CC[C@H]21 [Cpd 153, 5-(3-fluoro-1H-pyrazol-4-yl)-2-{3-[(3aS,7aR)-1-methyloctahydro-5H-pyrrolo[3,2-c]pyridin-5-yl]-1,2,4-triazin-6-yl}phenol] | 100 to 500 nM
19 | CCC(C)(C)NC1CCN(c2ncc(-c3ccc(-c4cn[nH]c4)cc3O)nn2)C1 (stereo not drawn) [Cpd 154, 2-(3-{3-[(2-methylbutan-2-yl)amino]pyrrolidin-1-yl}-1,2,4-triazin-6-yl)-5-(1H-pyrazol-4-yl)phenol] | ≤ 100 nM
20 | CN(c1ncc(-c2ccc(-c3ccn4nnnc4c3)cc2O)nn1)C1CC(C)(C)NC(C)(C)C1 [Cpd 155, 2-{3-[methyl(2,2,6,6-tetramethylpiperidin-4-yl)amino]-1,2,4-triazin-6-yl}-5-(tetrazolo[1,5-a]pyridin-7-yl)phenol] | ≤ 100 nM
21 | CN(c1ncc(-c2ccc(-c3n[nH]cc3F)cc2O)nn1)C1CC(C)(C)NC(C)(C)C1 [Cpd 156, 5-(4-fluoro-1H-pyrazol-3-yl)-2-{3-[methyl(2,2,6,6-tetramethylpiperidin-4-yl)amino]-1,2,4-triazin-6-yl}phenol] | ≤ 100 nM
22 | Oc1cc(-c2cn[nH]c2)ccc1-c1cnc(N2CCC(NC34CC5CC(CC(C5)C3)C4)C2)nn1 (stereo not drawn) [Cpd 157, 2-(3-{3-[(adamantan-1-yl)amino]pyrrolidin-1-yl}-1,2,4-triazin-6-yl)-5-(1H-pyrazol-4-yl)phenol] | 100 to 500 nM
23 | CN(c1ncc(-c2ccc(-c3cnc4[nH]ccc4n3)cc2O)nn1)C1CC(C)(C)NC(C)(C)C1 [Cpd 158, 2-{3-[methyl(2,2,6,6-tetramethylpiperidin-4-yl)amino]-1,2,4-triazin-6-yl}-5-(5H-pyrrolo[2,3-b]pyrazin-2-yl)phenol] | 1000 to 3000 nM
24 | Oc1cc(-c2cn[nH]c2)ccc1-c1cnc(N2CCC(NC3C4CC5CC(C4)CC3C5)C2)nn1 (stereo not drawn) [Cpd 159, 2-(3-{3-[(adamantan-2-yl)amino]pyrrolidin-1-yl}-1,2,4-triazin-6-yl)-5-(1H-pyrazol-4-yl)phenol] | 1000 to 3000 nM
25 | CC12CC3CC(C)(C1)CC(NC1CCN(c4ncc(-c5ccc(-c6cn[nH]c6)cc5O)nn4)C1)(C3)C2 (stereo not drawn) [Cpd 160, 2-(3-{3-[(3,5-dimethyladamantan-1-yl)amino]pyrrolidin-1-yl}-1,2,4-triazin-6-yl)-5-(1H-pyrazol-4-yl)phenol] | 1000 to 3000 nM
26 | CN(c1ncc(-c2ccc(-n3cc(CO)cn3)cc2O)nn1)C1CC(C)(C)NC(C)(C)C1 [Cpd 161, 5-[4-(hydroxymethyl)-1H-pyrazol-1-yl]-2-{3-[methyl(2,2,6,6-tetramethylpiperidin-4-yl)amino]-1,2,4-triazin-6-yl}phenol] | ≤ 100 nM
27 | CN(C)[C@@H]1CC[C@@H]2CN(c3ncc(-c4ccc(-c5cn[nH]c5)cc4O)nn3)C[C@@H]21 [Cpd 162, 2-{3-[(3aR,4R,6aS)-4-(dimethylamino)hexahydrocyclopenta[c]pyrrol-2(1H)-yl]-1,2,4-triazin-6-yl}-5-(1H-pyrazol-4-yl)phenol] | 100 to 500 nM
28 | CN(c1ncc(-c2ccc(-c3ccc4ncn(C)c4n3)cc2O)nn1)C1CC(C)(C)NC(C)(C)C1 [Cpd 163, 5-(3-methyl-3H-imidazo[4,5-b]pyridin-5-yl)-2-{3-[methyl(2,2,6,6-tetramethylpiperidin-4-yl)amino]-1,2,4-triazin-6-yl}phenol] | 1000 to 3000 nM
29 | CN(c1ncc(-c2ccc(-c3ccc4c(ncn4C)n3)cc2O)nn1)C1CC(C)(C)NC(C)(C)C1 [Cpd 164, 5-(1-methyl-1H-imidazo[4,5-b]pyridin-5-yl)-2-{3-[methyl(2,2,6,6-tetramethylpiperidin-4-yl)amino]-1,2,4-triazin-6-yl}phenol] | 100 to 500 nM
30 | N[C@H]1CC[C@@H]2CN(c3ncc(-c4ccc(-c5cn[nH]c5)cc4O)nn3)C[C@@H]21 [Cpd 165, 2-{3-[(3aR,4S,6aS)-4-aminohexahydrocyclopenta[c]pyrrol-2(1H)-yl]-1,2,4-triazin-6-yl}-5-(1H-pyrazol-4-yl)phenol] | ≤ 100 nM
31 | CN1CCC2CN(c3ncc(-c4ccc(-c5cn[nH]c5)cc4O)nn3)CC2C1 (stereo not drawn) [Cpd 166, 2-[3-(5-methyloctahydro-2H-pyrrolo[3,4-c]pyridin-2-yl)-1,2,4-triazin-6-yl]-5-(1H-pyrazol-4-yl)phenol] | ≤ 100 nM
32 | CN(C)[C@H]1CC[C@@H]2CN(c3ncc(-c4ccc(-c5cn[nH]c5)cc4O)nn3)C[C@@H]21 [Cpd 167, 2-{3-[(3aR,4S,6aS)-4-(dimethylamino)hexahydrocyclopenta[c]pyrrol-2(1H)-yl]-1,2,4-triazin-6-yl}-5-(1H-pyrazol-4-yl)phenol] | ≤ 100 nM
33 | Cc1cc(-c2ccc(-c3cnc(N(C)C4CC(C)(C)NC(C)(C)C4)nn3)c(O)c2)nc(O)c1N [Cpd 168, 3-amino-6-(3-hydroxy-4-{3-[methyl(2,2,6,6-tetramethylpiperidin-4-yl)amino]-1,2,4-triazin-6-yl}phenyl)-4-methylpyridin-2-ol] | 100 to 500 nM
